Experimental data reported in patent publication US12514251B2, “Fused heterocyclic compounds and their use as pest control agents” (priority 2020, dated 2026).

Columns and labels:
Type in all cases: in vivo
Myzus persicae = assay: Myzus persicae, leaf dip method; conditions: foliar, capsicum leaf dip, third instar nymphs, 72 h after release, dead + moribund vs untreated control, read-out: percent mortality
Description: The leaf dip method was used for testing, wherein the required quantity of the compound was weighed and dissolved in a tube containing solvent solution. The tube was put on a vortex at 2000 rpm for 90 min for proper mixing, then diluted with 0.01% Triton-X solution to the desired test concentration. Capsicum leaves were dipped in the compound solution for 10 seconds, shade dried for 20 min and then placed, with the abaxial side of the leaf up, in single cells of a bio-assay tray containing 4 ml of a 1% agar-agar solution. Known numbers of third instar nymphs, collected in petri plates, were released into the cell with the treated leaf and the cell was covered with a perforated lid for better aeration. The trays were kept in a plant growth chamber at a temperature of 25° C. and a relative humidity of 70%. Observations on dead, moribund and alive nymphs were recorded 72 h after the release. Percent mortality was calculated by combining dead and moribund nymphs and comparing the result with the one of the untreated control.

Helicoverpa armigera = assay: Helicoverpa armigera, diet incorporation method; conditions: third instar larvae, 96 h after release, dead + moribund vs untreated control, read-out: percent mortality
Description: (§1) The diet incorporation method was used, in which the required quantity of the test compound was weighed and dissolved in a tube containing solvent solution. The tube was put on a vortex at 2000 rpm for 90 min for proper mixing. Semi-synthetic diet was incorporated into this solution when the temperature was approximately 50° C. in the bioassay containers. Compound and diet were stirred thoroughly for proper mixing and allowed to cool for 30 min. The solidified diet was cut into equal pieces, and then each piece was transferred into one cell of a bio-assay tray. A single starved third instar larva was released into each of the cells of the bioassay trays and the tray was covered with a lid. The bio-assay trays were then kept under laboratory conditions at a temperature of 25° C. and a relative humidity of 70%. Observations on dead, moribund and alive larvae were recorded 96 h after the release of the larvae. Percent mortality was calculated by combining dead and moribund larvae and comparing the result to the one of the untreated control.

Plutella xylostella = assay: Plutella xylostella, leaf dip method; conditions: foliar, cabbage leaf dip, second instar larvae, 72 h after release, dead + moribund vs untreated control, read-out: percent mortality
How it was run: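 Cabbage leaves were dipped for 10 s in compound diluted with 0.01% Triton-X, shade dried and offered singly to second instar larvae. Trays were held at 25° C. and 70% relative humidity. Dead plus moribund larvae were scored at 72 h, and percent mortality was expressed relative to untreated control.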

Nilaparvata lugens = assay: Nilaparvata lugens, seedling dip method; conditions: paddy seedling dip, third instar nymphs, 72 h after release, dead + moribund vs untreated control, read-out: percent mortality
Description: The seedling dip method was used for testing, wherein the required quantity of the compound was weighed and dissolved in a tube containing solvent solution. The tube was put on a vortex at 2000 rpm for 90 min for proper mixing, then diluted with 0.01% Triton-X solution to the desired test concentration.
Paddy seedlings were dipped in the compound solution for 10 seconds, shade dried for 20 min and then the seedlings were placed in glass test tubes with the roots kept in water. 15 third instar nymphs were released into each test tube and the tubes were kept in a plant growth chamber at a temperature of 25° C. and relative humidity of 75%. Observations on dead, moribund and alive nymphs were recorded 72 h after the release. Percent mortality was calculated by combining dead and moribund nymphs and comparing the result to the one of the untreated control.

Bemisia tabaci = assay: Bemisia tabaci, leaf dip method; conditions: foliar, brinjal leaf dip, whitefly adults, 72 h after release, dead + moribund vs untreated control, read-out: percent mortality
Description: The leaf dip method was used for testing, wherein the required quantity of the compound was weighed and dissolved in a tube containing solvent solution. The tube was put on a vortex at 2000 rpm for 90 min for proper mixing, then diluted with 0.01% Triton-X solution to get the desired test concentration. Brinjal leaves were dipped in the compound solution for 10 seconds; shade dried for 20 min and then placed, with the abaxial side of the leaf up, on 4 ml of a 1% agar-agar solution in respective perforated container caps. Known numbers of freshly emerged whitefly adults were collected, using a modified aspirator, and released into a perforated container in which the cap containing the treated leaf was placed. The containers were kept in a plant growth chamber at a temperature of 25° C. and relative humidity of 70%.
Observations on dead, moribund and alive adults were recorded 72 h after the release. Percent mortality was calculated by combining dead and moribund adults and comparing the result to the one of the untreated control. The compounds 55 87 and 198 were recorded ≥70 percent mortality @ 300 PPM.

Spodoptera litura = assay: Spodoptera litura, diet incorporation method; conditions: third instar larvae, 96 h after release, dead + moribund vs untreated control, read-out: percent mortality
Description: as §1, with “covered with the lid. The” for “covered with a lid. The”, “release of larvae. Percent” for “release of the larvae. Percent”

Compound | mortality at 300 ppm (Myzus persicae) | mortality at 300 ppm (Helicoverpa armigera) | mortality at 300 ppm (Plutella xylostella) | mortality at 300 ppm (Nilaparvata lugens) | mortality at 300 ppm (Bemisia tabaci) | mortality at 300 ppm (Spodoptera litura)
CCSc1cc(Br)cnc1-c1ccnc2cc(C(F)(F)F)nn12 [Compound 11, 7-(5-bromo-3-(ethylthio)pyridin-2-yl)-2-(trifluoromethyl)pyrazolo[1,5-a]pyrimidine] | ≥ 70% |  |  |  |  | 
CCS(=O)(=O)c1ccc(-n2nccn2)nc1-c1ccn2nc(C(F)(F)F)cc2n1 [Compound 41, 5-(3-(ethylsulfonyl)-6-(2H-1,2,3-triazol-2-yl)pyridin-2-yl)-2-(trifluoromethyl)pyrazolo[1,5-a]pyrimidine] |  | ≥ 70% | ≥ 70% | ≥ 70% |  | 
CCS(=O)(=O)c1ccc(-n2nccn2)nc1-c1cnc2cc(C(F)(F)F)nn2c1 [Compound 55, 6-(3-(ethylsulfonyl)-6-(2H-1,2,3-triazol-2-yl)pyridin-2-yl)-2-(trifluoromethyl)pyrazolo[1,5-a]pyrimidine] |  |  |  |  | ≥ 70% | 
CCS(=O)(=O)c1cc(O)cnc1-c1ccn2nc(C(F)(F)F)nc2n1 [Compound 109, 5-(ethylsulfonyl)-6-(2-(trifluoromethyl)-[1,2,4]triazolo[1,5-a]pyrimidin-5-yl)pyridin-3-ol] | ≥ 70% |  |  |  |  | 
CCS(=O)(=O)c1cc(-n2cnc(C)n2)cnc1-c1ncc2nc(C(F)(F)F)n(C)c2n1 [Compound 130, 2-(3-(ethylsulfonyl)-5-(3-methyl-1H-1,2,4-triazol-1-yl)pyridin-2-yl)-9-methyl-8-(trifluoromethyl)-9H-purine] |  |  |  | ≥ 70% |  | 
CCS(=O)(=O)c1cc(C2CC2)cnc1-c1ccn2nc(C(F)(F)F)cc2n1 [Compound 136, 5-(5-cyclopropyl-3-(ethylsulfonyl)pyridin-2-yl)-2-(trifluoromethyl)pyrazolo[1,5-a]pyrimidine] |  | ≥ 70% | ≥ 70% |  |  | ≥ 70%
CCS(=O)(=O)c1ccc(NC2CC2)nc1-c1ccn2nc(C(F)(F)F)cc2n1 [Compound 141, N-cyclopropyl-5-(ethylsulfonyl)-6-(2-(trifluoromethyl)pyrazolo[1,5-a]pyrimidin-5-yl)pyridin-2-amine] | ≥ 70% |  | ≥ 70% | ≥ 70% |  | 
CCS(=O)(=O)c1cc(-c2ccc(Cl)c(Cl)c2)cnc1-c1ccn2nc(C(F)(F)F)cc2n1 [Compound 155, 5-(5-(3,4-dichlorophenyl)-3-(ethylsulfonyl)pyridin-2-yl)-2-(trifluoromethyl)pyrazolo[1,5-a]pyrimidine] |  | ≥ 70% | ≥ 70% |  |  | ≥ 70%
CCS(=O)(=O)c1cc(-c2cccc(C(F)(F)F)c2)cnc1-c1ccn2nc(C(F)(F)F)cc2n1 [Compound 156, 5-(3-(ethylsulfonyl)-5-(3-(trifluoromethyl)phenyl)pyridin-2-yl)-2-(trifluoromethyl)pyrazolo[1,5-a]pyrimidine] |  | ≥ 70% | ≥ 70% |  |  | ≥ 70%
CCS(=O)(=O)c1cccnc1-c1ccn2nc(C(F)(F)F)cc2n1 [Compound 160, 5-(3-(ethylsulfonyl)pyridin-2-yl)-2-(trifluoromethyl)pyrazolo[1,5-a]pyrimidine] | ≥ 70% | ≥ 70% | ≥ 70% |  |  | 
CCS(=O)(=O)c1ccc(N(C)C)nc1-c1ccn2nc(C(F)(F)F)cc2n1 [Compound 166, 5-(ethylsulfonyl)-N,N-dimethyl-6-(2-(trifluoromethyl)pyrazolo[1,5-a]pyrimidin-5-yl)pyridin-2-amine] |  | ≥ 70% | ≥ 70% | ≥ 70% |  | 
CCS(=O)(=O)c1ccc(NC)nc1-c1ccn2nc(C(F)(F)F)cc2n1 [Compound 167, 5-(ethylsulfonyl)-N-methyl-6-(2-(trifluoromethyl)pyrazolo[1,5-a]pyrimidin-5-yl)pyridin-2-amine] | ≥ 70% |  | ≥ 70% | ≥ 70% |  | 
CCS(=O)(=O)c1ccc(N(C)C2CC2)nc1-c1ccn2nc(C(F)(F)F)cc2n1 [Compound 168, N-cyclopropyl-5-(ethylsulfonyl)-N-methyl-6-(2-(trifluoromethyl)pyrazolo[1,5-a]pyrimidin-5-yl)pyridin-2-amine] |  |  | ≥ 70% | ≥ 70% |  | ≥ 70%
CCS(=O)(=O)c1ccc(N)nc1-c1ccn2nc(C(F)(F)F)cc2n1 [Compound 174, 5-(ethylsulfonyl)-6-(2-(trifluoromethyl)pyrazolo[1,5-a]pyrimidin-5-yl)pyridin-2-amine] |  |  | ≥ 70% | ≥ 70% |  | 
CCS(=O)(=O)c1ccc(C)nc1-c1ccn2nc(C(F)(F)F)cc2n1 [Compound 182, 5-(3-(ethylsulfonyl)-6-methylpyridin-2-yl)-2-(trifluoromethyl)pyrazolo[1,5-a]pyrimidine] | ≥ 70% |  | ≥ 70% | ≥ 70% |  | 
CCS(=O)(=O)c1cc(OC(C)(C)C(N)=O)cnc1-c1ccn2nc(C(F)(F)F)cc2n1 [Compound 220, 2-((5-(ethylsulfonyl)-6-(2-(trifluoromethyl)pyrazolo[1,5-a]pyrimidin-5-yl)pyridin-3-yl)oxy)-2-methylpropanamide] | ≥ 70% |  | ≥ 70% |  |  | 
CCS(=O)(=O)c1cc(-c2ncccn2)cnc1-c1ccn2nc(C(F)(F)F)cc2n1 [Compound 231, 5-(3-(ethylsulfonyl)-5-(pyrimidin-2-yl)pyridin-2-yl)-2-(trifluoromethyl)pyrazolo[1,5-a]pyrimidine] |  | ≥ 70% | ≥ 70% |  |  | ≥ 70%
CCCNc1ccc(S(=O)(=O)CC)c(-c2ccn3nc(C(F)(F)F)cc3n2)n1 [Compound 244, 5-(ethylsulfonyl)-N-propyl-6-(2-(trifluoromethyl)pyrazolo[1,5-a]pyrimidin-5-yl)pyridin-2-amine] | ≥ 70% |  | ≥ 70% |  |  | 
